Patent US10967078B2, “Radiolabelled mGluR2 PET ligands” (Janssen Pharmaceutica NV, priority 2014, dated 2021)

What was measured:
[1] = molecular target: mGlu8 (Homo sapiens, UniProt O00222); assay: Selectivity for mGluR2 versus mGluR8; type: biochemical
[2] = molecular target: mGlu3 (Homo sapiens, UniProt Q14832); assay: Selectivity for mGluR2 versus mGluR3; type: biochemical
[3] = molecular target: mGlu4 (Homo sapiens, UniProt Q14833); assay: Selectivity for mGluR2 versus mGluR4; type: biochemical
[4] = molecular target: mGlu7 (Homo sapiens, UniProt Q14831); assay: Selectivity for mGluR2 versus mGluR7; type: biochemical
mGlu7, sequence (Q14831 35-915): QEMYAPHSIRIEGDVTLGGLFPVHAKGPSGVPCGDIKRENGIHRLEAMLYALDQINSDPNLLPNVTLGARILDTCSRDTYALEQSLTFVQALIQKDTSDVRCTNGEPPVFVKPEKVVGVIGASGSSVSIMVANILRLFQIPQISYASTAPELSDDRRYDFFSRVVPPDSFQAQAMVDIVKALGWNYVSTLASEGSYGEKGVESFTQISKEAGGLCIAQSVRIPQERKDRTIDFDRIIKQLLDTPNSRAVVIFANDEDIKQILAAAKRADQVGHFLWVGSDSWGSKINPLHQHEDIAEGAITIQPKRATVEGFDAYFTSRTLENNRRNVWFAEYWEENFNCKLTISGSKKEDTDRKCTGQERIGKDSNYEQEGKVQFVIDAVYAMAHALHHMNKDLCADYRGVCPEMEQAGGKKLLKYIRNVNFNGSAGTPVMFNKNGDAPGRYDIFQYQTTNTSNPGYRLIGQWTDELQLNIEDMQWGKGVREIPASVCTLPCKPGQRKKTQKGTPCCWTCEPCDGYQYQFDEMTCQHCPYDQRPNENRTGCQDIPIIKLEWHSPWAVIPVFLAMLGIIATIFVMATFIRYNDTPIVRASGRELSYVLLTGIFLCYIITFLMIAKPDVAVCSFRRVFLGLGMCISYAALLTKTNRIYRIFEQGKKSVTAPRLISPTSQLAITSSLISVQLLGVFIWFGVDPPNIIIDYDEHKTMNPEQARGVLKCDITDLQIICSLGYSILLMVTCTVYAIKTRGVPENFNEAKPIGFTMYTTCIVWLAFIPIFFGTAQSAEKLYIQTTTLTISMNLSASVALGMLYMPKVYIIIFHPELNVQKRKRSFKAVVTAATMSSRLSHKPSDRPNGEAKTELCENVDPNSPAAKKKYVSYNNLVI

[5] = molecular target: mGlu1 (Homo sapiens, UniProt Q13255); assay: Selectivity for mGluR2 versus mGluR1; type: biochemical
mGlu1, sequence (Q13255 19-1194): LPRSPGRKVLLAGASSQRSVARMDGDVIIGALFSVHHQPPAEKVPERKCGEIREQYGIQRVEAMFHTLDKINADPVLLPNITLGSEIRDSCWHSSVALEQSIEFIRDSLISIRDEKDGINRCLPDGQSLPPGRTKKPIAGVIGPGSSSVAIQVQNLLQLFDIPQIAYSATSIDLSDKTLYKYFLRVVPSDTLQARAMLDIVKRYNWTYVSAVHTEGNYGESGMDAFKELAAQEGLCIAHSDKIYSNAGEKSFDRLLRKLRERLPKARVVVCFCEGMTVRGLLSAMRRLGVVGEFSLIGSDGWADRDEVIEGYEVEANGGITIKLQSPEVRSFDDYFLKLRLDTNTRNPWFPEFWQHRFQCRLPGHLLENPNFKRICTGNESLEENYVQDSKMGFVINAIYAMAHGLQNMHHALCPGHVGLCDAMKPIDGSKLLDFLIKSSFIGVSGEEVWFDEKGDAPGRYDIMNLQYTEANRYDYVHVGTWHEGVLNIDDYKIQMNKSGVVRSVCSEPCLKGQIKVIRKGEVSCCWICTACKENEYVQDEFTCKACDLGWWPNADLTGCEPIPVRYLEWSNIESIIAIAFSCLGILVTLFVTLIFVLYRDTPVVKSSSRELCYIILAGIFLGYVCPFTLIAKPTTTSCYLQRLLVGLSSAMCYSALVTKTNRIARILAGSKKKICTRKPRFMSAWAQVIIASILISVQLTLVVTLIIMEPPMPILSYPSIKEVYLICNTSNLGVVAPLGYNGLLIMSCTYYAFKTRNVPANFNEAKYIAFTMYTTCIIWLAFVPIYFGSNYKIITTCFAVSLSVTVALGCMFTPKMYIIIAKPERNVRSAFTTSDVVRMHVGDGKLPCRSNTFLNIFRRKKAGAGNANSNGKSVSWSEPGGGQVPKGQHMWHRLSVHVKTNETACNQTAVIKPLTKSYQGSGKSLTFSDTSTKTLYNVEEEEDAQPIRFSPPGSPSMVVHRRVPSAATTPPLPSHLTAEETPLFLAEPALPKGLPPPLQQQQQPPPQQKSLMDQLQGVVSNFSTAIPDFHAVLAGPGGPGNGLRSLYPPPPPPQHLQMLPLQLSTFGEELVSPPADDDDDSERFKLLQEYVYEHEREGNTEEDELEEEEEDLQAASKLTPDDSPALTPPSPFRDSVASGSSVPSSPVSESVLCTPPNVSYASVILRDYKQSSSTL

[6] = molecular target: mGlu5 (Homo sapiens, UniProt P41594); assay: Selectivity for mGluR2 versus mGluR5; type: biochemical
mGlu5, sequence (P41594 21-1212): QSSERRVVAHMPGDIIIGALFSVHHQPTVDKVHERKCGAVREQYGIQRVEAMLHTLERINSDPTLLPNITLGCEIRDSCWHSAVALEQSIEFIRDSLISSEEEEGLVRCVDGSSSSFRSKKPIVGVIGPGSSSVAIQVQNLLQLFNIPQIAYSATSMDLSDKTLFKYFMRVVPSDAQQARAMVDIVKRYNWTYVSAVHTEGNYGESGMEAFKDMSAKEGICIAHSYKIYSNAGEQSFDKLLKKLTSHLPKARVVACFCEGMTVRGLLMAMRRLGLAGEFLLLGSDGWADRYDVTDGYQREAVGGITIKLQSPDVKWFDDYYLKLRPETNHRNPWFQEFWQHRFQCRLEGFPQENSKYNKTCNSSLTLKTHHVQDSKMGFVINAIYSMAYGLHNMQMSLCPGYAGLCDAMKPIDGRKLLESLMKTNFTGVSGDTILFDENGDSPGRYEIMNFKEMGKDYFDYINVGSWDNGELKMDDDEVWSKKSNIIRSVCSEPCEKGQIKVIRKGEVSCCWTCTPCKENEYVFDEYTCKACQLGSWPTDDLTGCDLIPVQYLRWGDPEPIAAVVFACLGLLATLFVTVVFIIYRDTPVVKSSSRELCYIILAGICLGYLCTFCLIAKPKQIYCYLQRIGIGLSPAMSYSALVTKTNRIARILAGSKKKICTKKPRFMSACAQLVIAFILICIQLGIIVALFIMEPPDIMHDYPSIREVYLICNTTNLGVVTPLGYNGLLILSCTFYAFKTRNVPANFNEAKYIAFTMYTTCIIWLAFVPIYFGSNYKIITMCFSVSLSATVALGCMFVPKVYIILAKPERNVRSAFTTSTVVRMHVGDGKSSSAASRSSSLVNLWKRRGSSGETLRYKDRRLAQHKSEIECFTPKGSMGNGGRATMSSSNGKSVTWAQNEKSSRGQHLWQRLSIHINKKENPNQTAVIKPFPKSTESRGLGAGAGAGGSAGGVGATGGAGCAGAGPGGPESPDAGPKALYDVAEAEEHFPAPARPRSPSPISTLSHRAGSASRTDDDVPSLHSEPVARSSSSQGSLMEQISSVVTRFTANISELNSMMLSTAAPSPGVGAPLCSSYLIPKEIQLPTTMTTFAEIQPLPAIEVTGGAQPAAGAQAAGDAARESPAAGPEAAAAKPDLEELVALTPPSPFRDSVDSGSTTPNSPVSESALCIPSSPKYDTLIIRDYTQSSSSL

[7] = molecular target: T1, human mGlu2 receptor (Homo sapiens, UniProt Q14416); assay: [35S]GTPγS binding assay, membranes from CHO cells transfected with the human mGlu2 receptor (NAM activity); type: biochemical
T1 construct: expressed in transfected cells; host or cells: CHO cells
T1 sequence (Q14416 19-872): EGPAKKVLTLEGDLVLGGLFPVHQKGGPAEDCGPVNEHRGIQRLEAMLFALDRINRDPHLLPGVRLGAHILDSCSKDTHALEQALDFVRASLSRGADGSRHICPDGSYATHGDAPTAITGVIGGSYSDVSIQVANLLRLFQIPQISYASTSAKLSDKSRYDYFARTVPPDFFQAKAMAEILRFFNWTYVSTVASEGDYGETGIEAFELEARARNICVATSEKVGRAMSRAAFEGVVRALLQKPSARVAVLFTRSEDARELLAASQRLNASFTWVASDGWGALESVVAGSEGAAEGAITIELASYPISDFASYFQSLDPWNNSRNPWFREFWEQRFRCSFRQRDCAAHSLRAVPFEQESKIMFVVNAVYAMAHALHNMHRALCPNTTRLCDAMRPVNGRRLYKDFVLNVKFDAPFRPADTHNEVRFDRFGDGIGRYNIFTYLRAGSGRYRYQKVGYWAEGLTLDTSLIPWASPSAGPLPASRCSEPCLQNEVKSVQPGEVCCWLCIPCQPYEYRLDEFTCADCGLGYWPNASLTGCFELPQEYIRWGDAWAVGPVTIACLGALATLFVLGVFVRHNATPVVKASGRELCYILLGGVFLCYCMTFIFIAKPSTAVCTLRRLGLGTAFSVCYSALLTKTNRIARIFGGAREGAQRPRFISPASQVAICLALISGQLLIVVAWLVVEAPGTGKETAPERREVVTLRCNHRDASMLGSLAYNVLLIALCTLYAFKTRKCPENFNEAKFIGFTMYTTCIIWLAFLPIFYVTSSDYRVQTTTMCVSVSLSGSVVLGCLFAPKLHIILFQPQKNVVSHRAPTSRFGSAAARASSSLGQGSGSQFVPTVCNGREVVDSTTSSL
Protocol: The [^35S]GTPγS binding assay is a functional membrane-based assay used to study G-protein coupled receptor (GPCR) function whereby incorporation of a non-hydrolysable form of GTP, [^35S]GTPγS (guanosine 5′-triphosphate, labelled with […] ^35S), is measured. The G-protein a subunit catalyzes the exchange of guanosine 5′-diphosphate (GDP) by guanosine triphosphate (GTP) and on activation of the GPCR by an agonist, [^35S]GTPγS, becomes incorporated and cannot be cleaved to continue the exchange cycle (Harper (1998) Current Protocols in Pharmacology 2.6.1-10, John Wiley & Sons, Inc.). […]
CHO-cells were cultured to pre-confluence and stimulated with 5 mM butyrate for 24 h. […] Protein concentration was determined by the Bradford method (Bio-Rad, USA) with bovine serum albumin as standard.
Measurement of mGluR2 negative allosteric modulatory activity of test compounds was performed as follows. […] Membrane-bound radioactivity was counted in a Topcount.
The concentration-response curves of representative compounds of the present invention were generated using the Lexis software interface (developed at J&J). Data were calculated as % of the control glutamate response, defined as the response that is generated upon addition of an EC80-equivalent concentration of glutamate. […] The concentration producing half-maximal inhibition was calculated as the IC50. […]

mGlu3, sequence (Q14832 23-879): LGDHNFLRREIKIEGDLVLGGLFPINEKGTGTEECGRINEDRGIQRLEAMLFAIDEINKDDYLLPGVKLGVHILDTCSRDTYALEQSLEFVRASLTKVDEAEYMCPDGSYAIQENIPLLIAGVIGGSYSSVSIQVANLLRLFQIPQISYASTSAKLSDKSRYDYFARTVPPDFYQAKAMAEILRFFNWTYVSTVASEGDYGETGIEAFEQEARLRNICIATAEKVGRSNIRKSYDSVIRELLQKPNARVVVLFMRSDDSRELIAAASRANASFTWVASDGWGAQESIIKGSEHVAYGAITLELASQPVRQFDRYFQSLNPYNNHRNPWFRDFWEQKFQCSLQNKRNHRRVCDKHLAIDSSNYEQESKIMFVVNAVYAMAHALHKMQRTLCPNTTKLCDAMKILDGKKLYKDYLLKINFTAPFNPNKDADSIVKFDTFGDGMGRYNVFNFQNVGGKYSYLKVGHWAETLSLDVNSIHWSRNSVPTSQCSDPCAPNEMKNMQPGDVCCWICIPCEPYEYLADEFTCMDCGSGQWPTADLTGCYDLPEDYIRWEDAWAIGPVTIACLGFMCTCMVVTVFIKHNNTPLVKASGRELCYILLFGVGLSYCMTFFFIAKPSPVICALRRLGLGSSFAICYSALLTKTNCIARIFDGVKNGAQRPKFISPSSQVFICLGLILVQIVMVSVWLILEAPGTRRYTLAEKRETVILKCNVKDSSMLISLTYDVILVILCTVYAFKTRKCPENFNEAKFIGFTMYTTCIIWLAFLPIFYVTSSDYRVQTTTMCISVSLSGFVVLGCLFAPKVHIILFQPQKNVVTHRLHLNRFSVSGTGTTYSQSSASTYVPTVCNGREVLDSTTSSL

| Selectivity over mGlu8 [1] | Selectivity over mGlu3 [2] | Selectivity over mGlu4 [3] | Selectivity over mGlu7 [4] | Selectivity over mGlu1 [5] | melting point [°C] | Selectivity over mGlu5 [6] | IC50 ([7]; glutamate 60 μM (~EC80), read-out: GTPγS - hmGluR2 anGT pIC50 (converted)) [nM] | Emax ([7]; maximal % inhibition relative to the control glutamate response, read-out: GTPγS - hmGluR2 anGT Emax) [%] | Structure (SMILES) |
| --- | --- | --- | --- | --- | --- | --- | --- | --- | --- |
| 1819.7 | 16.2 | 9120.1 | 1819.7 | 1819.7 | 170.3 | 1819.7 | – | – | C[C@H]1CN(c2ccc(Cl)c(Cl)c2)C(=O)c2c(-c3ccnc(F)c3)cnn21 [Co. No. 3, (7S)-5-(3,4-Dichlorophenyl)-3-(2-fluoro-4-pyridyl)-7-methyl-6,7-dihydropyrazolo[1,5-a]pyrazin-4-one] |
| 1122.0 | 25.7 | 5623.4 | 1122.0 | 1122.0 | – | 1122.0 | – | – | Cc1cc(-c2cnn3c2C(=O)N(c2ccc(C(F)(F)F)cc2)C[C@@H]3C)ccn1 [Co. No. 1, (7S)-7-Methyl-3-(2-methylpyridin-4-yl)-5-[4-(trifluoromethyl)phenyl]-6,7-dihydropyrazolo[1,5-a]pyrazin-4(5H)-one] |
| – | 77.6 | – | – | – | – | – | 3.02 | 106 | CNc1cc(-c2cnn3c2C(=O)N(c2ccc(S(F)(F)(F)(F)F)cc2)C[C@@H]3C)ccn1 [Co. No. 4, (7S)-7-Methyl-3-[2-(methylamino)-4-pyridyl]-5-[4-(pentafluoro-λ^6-sulfanyl)phenyl]-6,7-dihydropyrazolo[1,5-a]pyrazin-4-one] |
